Data from patent US4983593A, “Pharmaceutical composition of dihydropyridine compound” (priority 1988, dated 1991).
Counter-ions that a name gives are not always drawn.

Legend:
[1] = Solubility improvement of NZ-105 by pulverizing or by formulating other polymers; type: physicochemical; details: pulverizing crystals
Source text: This entailed larger size tablets. […] This also entailed larger size tablets.

[2] = background; cited from earlier work
[3] = background; cited from earlier work; remark: listed apart in the source

SMILES | Improvement in solubility (in words) [1] | Absorption through gastrointestinal tracts (in words) [2] | Solubility in water (in words) [3]
CC1=C(C(=O)OCCN(Cc2ccccc2)c2ccccc2)C(c2cccc([N+](=O)[O-])c2)C(P2(=O)OCC(C)(C)CO2)=C(C)N1 (stereo not drawn) [NZ-105, 5-(5,5-dimethyl-1,3,2-dioxaphosphorinane-2-yl)-1,4-dihydro-2,6-dimethyl-4-(3-nitrophenyl)-3-pyridine carboxylic acid 2-(phenyl(phenylmethyl)amino) ethyl ester P-oxide hydrochlorideethanol] | did not result in an improvement in the solubility of NZ-105 of a degree to promote its bioavailability | – | –
COC(=O)C1=C(C)NC(C)=C(C(=O)OCCN(C)Cc2ccccc2)C1c1cccc([N+](=O)[O-])c1 (stereo not drawn) [Nicardipine] | – | can not be absorbed through gastrointestinal tracts in a sufficient amount | very poor solubility in water
